Measured values: patent publication US8394829B2, “Bi-functional quinoline analogs” (Gilead Sciences, Inc., priority 2010, dated 2013)

Columns and labels:
[1] = tested on: LPS-induced TNF-α release from human peripheral blood mononuclear cells (PBMC); assay: Inhibition of LPS-induced TNF-α release from human PBMC; type: cell-based; settings: LPS 0.4 ng/mL, 6 h, presence or absence of ICI-118551 not given
Source text: Inhibition of Lipopolysaccharide (LPS)-Induced Tumour Necrosis Factor Alpha (TNF-α) Release from Human Peripheral Blood Mononuclear Cells (PBMC)
Human whole blood was drawn from donors and cell purification initiated within two hours. Peripheral blood mononuclear cells (PBMC) were purified using a standard Ficoll gradient purification technique and aliquoted at a concentration of 100,000 cells/well in 96 well plates. Beta-2 adrenoreceptor agonists are also anti-inflammatory for some immune cells expressing the receptor and in this assay they can inhibit tumor necrosis factor-alpha (TNF-α) production. Therefore PBMC were pre-incubated for 30 min in the presence of the beta-2 adrenoreceptor antagonist ICI-118551 [3-(isopropylamino)-1-[(7-methyl-4-indanyl)oxy]butan-2-ol] (10 μM) to determine the PDE4 directed activity of test compounds, and in the absence of ICI-118551 for the combined PDE4 and beta-2 receptor directed activity. Test compounds were dissolved in DMSO and diluted in buffer (final DMSO concentration of 0.1% v/v) and were then added to the cell suspensions and pre-incubated for a further 1 h at 37° C. LPS solution was then added (0.4 ng/mL) and the cells incubated for a further 6 h. At the end of the incubation period the cell supernatants were collected and TNF-α was measured using a Procarta Cytokine Assay Kit (Affymetrix, Santa Clara, Calif.) according to the manufacturers' instructions. Data were analyzed using MiraiBio Masterplex QT v4.0 software (MasterPlex Version 1.0.1.18 Copyright 2008, Hitachi Software Engineering Co., Ltd) and used to extrapolate Mean Fluorescence Intensity (MFI) into concentrations of TNF-α and mean values from replicate wells were determined. Inhibition curves were plotted using a nonlinear curve fit employing a single-site binding model to determine the IC50 value for each test compound in the presence or absence of ICI-118551 using GraphPad Prism 5 for Windows, version 5.02 (GraphPad Software, San Diego Calif.).
EC50 determinations for the compounds presented above are seen in the fourth column of Table 1 (PBMC TNF EC50).

[2] = molecular target: T1, human recombinant beta-2 adrenoreceptors (Homo sapiens, UniProt P07550); assay: Beta-2 adrenoceptor binding assay ([3H](−)CGP-12177 displacement); settings: CHO cells expressing human beta-2 adrenoreceptors, [3H](−)CGP-12177 0.3 nM, 120 min
T1 construct: expressed in transfected cells; host or cells: CHO cells
T1 sequence (P07550 whole entry): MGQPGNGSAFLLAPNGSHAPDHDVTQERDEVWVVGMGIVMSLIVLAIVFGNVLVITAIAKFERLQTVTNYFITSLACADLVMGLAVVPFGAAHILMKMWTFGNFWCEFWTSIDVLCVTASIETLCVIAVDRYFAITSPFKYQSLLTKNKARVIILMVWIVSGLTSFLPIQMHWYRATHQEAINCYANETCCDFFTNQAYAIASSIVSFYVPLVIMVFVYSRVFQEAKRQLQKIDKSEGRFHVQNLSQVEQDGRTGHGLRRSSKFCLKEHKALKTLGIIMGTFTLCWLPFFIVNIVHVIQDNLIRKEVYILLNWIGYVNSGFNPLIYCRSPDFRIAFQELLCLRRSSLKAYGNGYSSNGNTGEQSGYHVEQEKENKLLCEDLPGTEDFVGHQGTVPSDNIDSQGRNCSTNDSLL
Method: Beta-2 Adrenoceptor Binding Assay
Test compounds were incubated for 120 min with Chinese hamster oocyte (CHO) cells expressing the human recombinant beta-2 adrenoreceptors. Binding of test compounds to the beta-2 adrenoreceptors was determined by measuring the displacement of the radiolabeled ligand [^3H](−)CGP-12177 (0.3 nM) from the receptor measured by a scintillation counting. Concentration response curves were generated for test compounds and the IC50 (molar concentration of the compound which produced 50% inhibition for the maximal response for that compound) was determined. These assays were performed using a protocol based on the original description of the assay by Joseph et al., (2004) Naun.-Sch. Arch. Pharm.; 369:525-532.
IC50 determinations for the compounds presented above are seen in the second column of Table 1 (Beta 2 IC50).

Human recombinant PDE4B2 = molecular target: T2, Human recombinant PDE4B2 (Homo sapiens, UniProt Q07343); assay: Inhibition of PDE4B4 enzyme activity (PDE Glo Assay); type: biochemical; settings: human recombinant PDE4B2, 50 nM cAMP; read-out: PDE4 IC50
T2 construct: purchased BPS Bioscience
T2 sequence (Q07343 1-564 isoform Q07343-2): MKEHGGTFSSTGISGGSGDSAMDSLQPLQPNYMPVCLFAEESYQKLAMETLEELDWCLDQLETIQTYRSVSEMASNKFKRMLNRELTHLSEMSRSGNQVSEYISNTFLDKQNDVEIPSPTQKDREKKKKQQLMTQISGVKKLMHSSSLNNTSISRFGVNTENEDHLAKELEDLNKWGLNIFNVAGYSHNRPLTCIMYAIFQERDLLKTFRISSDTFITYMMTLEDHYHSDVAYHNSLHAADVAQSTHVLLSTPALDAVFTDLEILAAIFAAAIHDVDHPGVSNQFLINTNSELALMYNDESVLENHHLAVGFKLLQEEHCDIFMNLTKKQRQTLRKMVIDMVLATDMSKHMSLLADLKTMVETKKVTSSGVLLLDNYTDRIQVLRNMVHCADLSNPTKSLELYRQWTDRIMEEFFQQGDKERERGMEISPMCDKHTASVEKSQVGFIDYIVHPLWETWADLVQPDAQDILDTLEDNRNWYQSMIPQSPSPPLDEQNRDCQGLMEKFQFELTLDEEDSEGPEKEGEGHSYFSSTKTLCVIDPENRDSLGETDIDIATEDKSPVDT
Method: Biological Examples Inhibition of PDE4B4 Enzyme Activity
The inhibitory activity of test compounds were determined using the PDE Glo Assay (Promega, V1361). The PDE-Glo Reaction Buffer was prepared (1 mL 5× buffer+4 mL water) and 150 nM solution of test compound dissolved in the Reaction Buffer, followed by 1:3 serial dilutions into Reaction Buffer. […] Human recombinant PDE4B2 (BPS Bioscience) was added to test compound in Reaction Buffer at a concentration of 0.12 nM per reaction. The enzyme and test compound were pre-incubated together at rt for 10 min. 50 nM of the enzyme substrate cAMP was then added to initiate the enzyme reaction, with the reaction terminated after one hour. Termination Buffer (1 mL 5× termination buffer+3.9 mL water+100 μL of 100 mM IBMX (ICN Chemicals, in DMSO)), was added to each reaction well to terminate the reaction. Detection Buffer (1 mL 5×PDE-Glo Detection buffer+3.96 mL water+40 μL PKA (supplied in kit)) was added to the cAMP-enzyme-test compound mix and this secondary reaction proceeded for 20 minutes at rt. An equal volume of Kinase Glo Reagent was then added to the reaction mixture and after 10 min luminescence was measured using a luminometer (EnVision, 0.1 sec read for luminescence). Luminescence values were […] related to levels of cAMP in the reaction mixture. Data were plotted as relative light units (RLU) versus test compound concentration and the IC50 determined using GraphPad Prism 5.0, using a nonlinear curve fit in a single-site binding model.
IC50 determinations for the compounds presented above are seen in the first column of Table 1 (PDE4IC50).

[3] = molecular target: T1, human recombinant beta-2 adrenoreceptors; assay: Functional agonism of human recombinant beta-2 adrenoreceptors expressed in CHO cells (cAMP HTRF); type: cell-based; settings: CHO cells expressing human beta-2 adrenoreceptors, cAMP elevation, 30 min
Method: Functional Agonism of Human Recombinant Beta-2 Adrenoreceptors Expressed in Chinese Hamster Oocytes (CHO)
Test compounds were incubated for 30 min with CHO cells expressing the human recombinant beta-2 adrenoreceptors. Agonism of the receptor was measured by the elevation of intracellular cyclic-AMP over control levels detected using a homogeneous time resolved fluorescence (HTRF) format. Compounds were determined to be “full” or “partial” agonists based on the maximum level of cAMP accumulated compared to the control compound isoproterenol which is a full agonist in this assay system. Concentration response curves were generated for test compounds and the EC50 (molar concentration of the agonist which produced 50% of the maximal response for that compound) was determined. These assays were performed using a protocol based on the original description of the assay by Baker, J. G. (2005) Brit. J. Pharmacol.; 144:317-322.
EC50 determinations for the compounds presented above are seen in the third column of Table 1 (Beta 2 EC50).

| Compound | EC50 [1] [µM] | IC50 [2] [µM] | IC50 (Human recombinant PDE4B2) [µM] | EC50 [3] [µM] |
| --- | --- | --- | --- | --- |
| COc1cccc(Nc2c(C(N)=O)cnc3c(C)cc(S(=O)(=O)c4ccc(-c5ccc(CCCNC[C@H](O)c6ccc(O)c7c6OCC(=O)N7)cc5)cc4)cc23)c1 [Example 49, (R)-6-((4′-(3-((2-hydroxy-2-(5-hydroxy-3-oxo-3,4-dihydro-2H-benzo[b][1,4]oxazin-8-yl)ethyl)amino)propyl)-[1,1′-biphenyl]-4-yl)sulfonyl)-4-((3-methoxyphenyl)amino)-8-methylquinoline-3-carboxamide] | < 0.1 | < 0.1 | – | – |
| COc1cccc(Nc2c(C(N)=O)cnc3c(C)cc(S(=O)(=O)c4cccc(C(=O)NCCCCCCCCNC[C@H](O)c5ccc(O)c6[nH]c(=O)ccc56)c4)cc23)c1 [Example 1, (R)-6-[[3-[[8-[[2-Hydroxy-2-(8-hydroxy-2-oxo-1,2-dihydroquinolin-5-yl)ethyl]amino]octyl]carbamoyl]phenyl]sulfonyl]-4-[(3-methoxyphenyl)amino]-8-methylquinoline-3-carboxamide] | < 0.1 | < 0.1 | < 0.1 | < 0.1 |
| COc1cccc(Nc2c(C(N)=O)cnc3c(C)cc(S(=O)(=O)c4cccc(C(=O)Nc5ccc(C#CCCCNC[C@H](O)c6ccc(O)c7c6OCC(=O)N7)cc5C)c4)cc23)c1 [Example 35, (R)-6-((3-((4-(5-((2-hydroxy-2-(5-hydroxy-3-oxo-3,4-dihydro-2H-benzo[b][1,4]oxazin-8-yl)ethyl)amino)pent-1-yn-1-yl)-2-methylphenyl)carbamoyl)phenyl)sulfonyl)-4-((3-methoxyphenyl)amino)-8-methylquinoline-3-carboxamide] | < 0.1 | < 0.1 | – | < 0.1 |
| COc1cccc(Nc2c(C(N)=O)cnc3c(C)cc(S(=O)(=O)c4cccc(C(=O)Nc5ccc(C#CCCCNC[C@H](O)c6ccc(O)c7c6OCC(=O)N7)c(C)c5)c4)cc23)c1 [Example 36, (R)-6-((3-((4-(5-((2-hydroxy-2-(5-hydroxy-3-oxo-3,4-dihydro-2H-benzo[b][1,4]oxazin-8-yl)ethyl)amino)pent-1-yn-1-yl)-3-methylphenyl)carbamoyl)phenyl)sulfonyl)-4-((3-methoxyphenyl)amino)-8-methylquinoline-3-carboxamide] | < 0.1 | < 0.1 | – | – |
| COc1cccc(Nc2c(C(N)=O)cnc3c(C)cc(S(=O)(=O)c4ccc(-c5ccc(CCCCCNC[C@H](O)c6ccc(O)c7c6OCC(=O)N7)cc5)cc4)cc23)c1 [Example 51, (R)-6-((4′-(5-((2-hydroxy-2-(5-hydroxy-3-oxo-3,4-dihydro-2H-benzo[b][1,4]oxazin-8-yl)ethyl)amino)pentyl)-[1,1′-biphenyl]-4-yl)sulfonyl)-4-((3-methoxyphenyl)amino)-8-methylquinoline-3-carboxamide] | < 0.1 | < 0.1 | – | < 0.1 |
| COc1cccc(Nc2c(C(N)=O)cnc3c(C)cc(S(=O)(=O)c4cccc(C(=O)N5CCC(NC[C@H](O)c6ccc(O)c(CO)c6)CC5)c4)cc23)c1 [Example 42, (R)-6-[[3-[[4-[[2-Hydroxy-2-[4-hydroxy-3-(hydroxymethyl)phenyl]ethyl]amino]piperidine-1-yl]carbonyl]phenyl]sulfonyl]-4-[(3-methoxyphenyl)amino]-8-methylquinoline-3-carboxamide] | < 0.1 | < 0.3 | < 0.1 | – |
| COc1cccc(Nc2c(C(N)=O)cnc3c(C)cc(S(=O)(=O)c4cccc(C(=O)Nc5cccc(-c6ccc(CCCCNC[C@H](O)c7ccc(O)c8c7OCC(=O)N8)cc6)c5)c4)cc23)c1 [Example 22] | < 0.1 | < 0.1 | – | < 0.1 |
| COc1cccc(Nc2c(C(N)=O)cnc3c(C)cc(S(=O)(=O)c4cccc(C(=O)N(C)c5ccc(CCCCOCCCCCCNC[C@H](O)c6ccc(O)c7[nH]c(=O)ccc67)cc5)c4)cc23)c1 [Example 40, (R)-6-((3-((4-(4-((6-((2-hydroxy-2-(8-hydroxy-2-oxo-1,2-dihydroquinolin-5-yl)ethyl)amino)hexyl)oxy)butyl)phenyl)(methyl)carbamoyl)phenyl)sulfonyl)-4-((3-methoxyphenyl)amino)-8-methylquinoline-3-carboxamide] | – | < 0.1 | – | < 0.1 |
| COc1cccc(Nc2c(C(N)=O)cnc3c(C)cc(S(=O)(=O)c4cccc(C(=O)Nc5ccc(-c6ccc(CCCCNC[C@H](O)c7ccc(O)c8c7OCC(=O)N8)cc6)cc5)c4)cc23)c1 [Example 21, (R)-6-((3-((4′-(4-((2-hydroxy-2-(5-hydroxy-3-oxo-3,4-dihydro-2H-benzo[b][1,4]oxazin-8-yl)ethyl)amino)butyl)-(1,1′-biphenyl]-4-yl)carbamoyl)phenyl)sulfonyl)-4-((3-methoxyphenyl)amino)-8-methylquinoline-3-carboxamide] | < 0.1 | < 0.1 | – | – |
| COc1cccc(Nc2c(C(N)=O)cnc3c(C)cc(S(=O)(=O)c4cccc(-c5ccc(CCCNC[C@H](O)c6ccc(O)c7c6OCC(=O)N7)cc5)c4)cc23)c1 [Example 50, (R)-6-((4′-(3-((2-hydroxy-2-(5-hydroxy-3-oxo-3,4-dihydro-2H-benzo[b][1,4]oxazin-8-yl)ethyl)amino)propyl)-[1,1′-biphenyl]-3-yl)sulfonyl)-4-((3-methoxyphenyl)amino)-8-methylquinoline-3-carboxamide] | < 0.1 | < 0.1 | – | – |
| COc1cccc(Nc2c(C(N)=O)cnc3c(C)cc(S(=O)(=O)c4cccc(C(=O)Nc5ccc(C#CCCCNC[C@H](O)c6cc(O)cc7c6OCC(=O)N7)cc5)c4)cc23)c1 [Example 24, (R)-6-((3-((4-(5-((2-hydroxy-2-(6-hydroxy-3-oxo-3,4-dihydro-2H-benzo[b][1,4]oxazin-8-yl)ethyl)amino)pent-1-yn-1-yl)phenyl)carbamoyl)phenyl)sulfonyl)-4-((3-methoxyphenyl)amino)-8-methylquinoline-3-carboxamide] | < 0.1 | < 0.1 | – | < 0.3 |
